Results: patent publication US20230265116A1, “DEGRADATION OF (EGFR) BY CONJUGATION OF EGFR INHIBITORS WITH E3 LIGASE LIGAND AND METHODS OF USE” (BEIGENE, LTD., priority 2020, published 2023)

Legend:
Format in all cases: cell-based
[1] = biological target: T1, EGFR L858R/T790M/C797S (BaF3-LTC cells) (Homo sapiens, UniProt P00533, C797S/L858R/T790M); test: EGFR degradation HTRF assay, BaF3-LTC cells; conditions: BaF3-LTC, 16h treatment
T1 construct: expressed in transfected cells; host or cells: BaF3
Outline: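 EGFR remaining after a 16 h, 37 °C exposure (8 doses, 5-fold steps from 10 uM final, 0.2% DMSO) was quantified by HTRF antibodies in cell lysate. Percent inhibition relative to DMSO control was fitted by four-parameter logistic to give DC50; Dmax denotes maximal degradation.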

[2] = biological target: T2, EGFR L858R/T790M (H1975-clone #36, homozygous) (Homo sapiens, UniProt P00533, L858R/T790M); test: EGFR degradation HTRF assay, H1975-clone #36 cells; conditions: H1975 #36, 16h treatment
T2 construct: designed to specifically target WT EGFR but preserve the L858R/T790M copy; host or cells: H1975-clone #36
Outline: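 Eight-point, 5-fold series starting at 10 uM (0.2% DMSO) applied for 16 h, 37 °C, to a WT-EGFR-knockout H1975 clone carrying only L858R/T790M. Lysates read by HTRF overnight. Degradation percentage relative to DMSO control fitted for DC50, with Dmax as maximum degradation.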

[3] = biological target: T3, EGFR (HCC827 cells) (Homo sapiens, UniProt P00533, DEL746-750); test: EGFR degradation HTRF assay, HCC827 cells; conditions: HCC827, 16h treatment
T3 construct: endogenous in cells; host or cells: HCC827
Outline: (§1)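 BaF3 (WT, Del19/T790M/C797S) and HCC827 cells exposed 16 h at 37 °C, 5% CO2 to compounds in 0.2% DMSO medium, 8 doses from 10 uM top, 5-fold steps. Lysates read by HTRF (665/620 nm); degradation % vs DMSO control, DC50 from four-parameter fit, Dmax as maximal degradation.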

[4] = tested on: EGFR Del19/T790M/C797S (BaF3-DTC cells); test: EGFR degradation HTRF assay, BaF3-DTC cells; conditions: 16h treatment
Outline: as §1

[5] = biological target: T4, EGFR WT (BaF3 WT cells) (Homo sapiens, UniProt P00533); test: EGFR degradation HTRF assay, BaF3 WT cells; conditions: BaF3 WT, 16h treatment
T4 construct: expressed in transfected cells; host or cells: BaF3
Procedure: BaF3 WT(wild type), BaF3-LTC(L858R/T790M/C797S) and BaF3-DTC(Del19/T790M/C797S) cells are treated with compounds diluted in 0.2% DMSO cell culture medium and incubate for 16h, 37° C., 5% CO2, H1975-#36, H1975-#28, H1975-#23 and HCC827 cells are treated with compounds diluted in 0.2% DMSO cell culture medium on day 2, incubate for 16h, 37° C., 5% CO2.the final concentriation of compounds in all assay is start with 10 uM, 5-fold dilution, total 8 doses were included.
After 16h treatment, add HTRF lysis buffer to each well; seal the plate and incubate 1 hour at room temperature on a plate shaker; Once the cells are lysed, 16 μL of cell lysate are transferred to a PE 384-well HTRF detection plate; 4 μL of pre-mixed HTRF antibodies are added to each well; Cover the plate with a plate sealer, spin 1000 rpm for 1 min, Incubate overnight at room temperature; Read on BMG PheraStar with HTRF protocol (337 nm-665 nm-620 nm).
The inhibition (degradation) percentage of the compound was calculated by the following equation: Inhibition percentage of Compound=100-100×(Signal-low control)/(High control-low control), wherein signal=each test compound group
High control=Cell group with added DMSO and without compound, indicating microplate readings without EGFR degradation;
Dmax is the maximum percentage of inhibition (degradation).
The IC50 (DC50) value of a compound can be obtained by fitting the following equation
Y=Bottom+(TOP−Bottom)/(1+((IC50/X)^hillslope))
Wherein, X and Y are known values, and IC50, Hillslope, Top and Bottom are the parameters obtained by fitting with software. Y is the inhibition percentage (calculated from the equation), X is the concentration of the compound; IC50 is the concentration of the compound when the 50% inhibition is reached. The smaller the IC50 value is, the stronger the inhibitory ability of the compound is. Vice versa, the higher the IC50 value is, the weaker the inhibitory ability of the compound is; Hillslope represents the slope of the fitted curve, generally around 1*; Bottom represents the minimum value of the curve obtained by data fitting, which is generally 0%±20%; Top represents the maximum value of the curve obtained by data fitting, which is generally 100%±20%. The experimental data were fitted by calculating and analyzing with Dotmatics data analysis software.

[6] = maximum percentage of degradation

T3 sequence (P00533 with tags, fused parts or gaps DEL746-750): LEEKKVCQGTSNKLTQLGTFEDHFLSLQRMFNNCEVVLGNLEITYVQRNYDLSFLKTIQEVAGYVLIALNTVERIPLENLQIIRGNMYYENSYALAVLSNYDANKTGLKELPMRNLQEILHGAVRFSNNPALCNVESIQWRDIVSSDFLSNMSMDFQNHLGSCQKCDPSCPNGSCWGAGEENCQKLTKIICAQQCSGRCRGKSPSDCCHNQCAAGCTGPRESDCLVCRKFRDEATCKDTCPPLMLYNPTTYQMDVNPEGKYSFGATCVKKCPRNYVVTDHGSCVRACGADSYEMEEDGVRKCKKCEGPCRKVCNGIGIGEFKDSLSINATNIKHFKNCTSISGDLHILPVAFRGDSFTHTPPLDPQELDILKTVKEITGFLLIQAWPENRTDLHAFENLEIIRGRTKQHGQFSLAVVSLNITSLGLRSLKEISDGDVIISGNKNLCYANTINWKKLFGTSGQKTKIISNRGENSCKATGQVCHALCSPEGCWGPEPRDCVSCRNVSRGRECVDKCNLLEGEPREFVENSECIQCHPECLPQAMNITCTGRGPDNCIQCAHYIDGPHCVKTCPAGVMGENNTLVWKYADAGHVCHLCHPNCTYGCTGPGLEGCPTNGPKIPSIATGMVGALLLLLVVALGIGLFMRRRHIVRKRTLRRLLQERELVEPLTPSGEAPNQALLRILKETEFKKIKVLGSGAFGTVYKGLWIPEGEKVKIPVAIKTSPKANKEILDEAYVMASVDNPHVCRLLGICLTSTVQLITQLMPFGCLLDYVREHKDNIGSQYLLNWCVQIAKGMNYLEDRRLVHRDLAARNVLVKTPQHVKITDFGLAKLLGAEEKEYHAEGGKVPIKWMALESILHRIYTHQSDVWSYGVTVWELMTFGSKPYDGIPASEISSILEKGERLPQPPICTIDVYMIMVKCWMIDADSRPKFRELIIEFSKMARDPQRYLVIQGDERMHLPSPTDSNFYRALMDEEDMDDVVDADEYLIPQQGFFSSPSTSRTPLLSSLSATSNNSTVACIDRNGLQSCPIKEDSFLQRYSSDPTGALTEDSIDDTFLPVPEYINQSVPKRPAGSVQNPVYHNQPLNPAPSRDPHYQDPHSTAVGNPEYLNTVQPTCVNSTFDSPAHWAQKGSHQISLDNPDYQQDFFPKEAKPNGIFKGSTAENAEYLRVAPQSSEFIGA
T2 sequence (P00533 25-1210 T790M/L858R): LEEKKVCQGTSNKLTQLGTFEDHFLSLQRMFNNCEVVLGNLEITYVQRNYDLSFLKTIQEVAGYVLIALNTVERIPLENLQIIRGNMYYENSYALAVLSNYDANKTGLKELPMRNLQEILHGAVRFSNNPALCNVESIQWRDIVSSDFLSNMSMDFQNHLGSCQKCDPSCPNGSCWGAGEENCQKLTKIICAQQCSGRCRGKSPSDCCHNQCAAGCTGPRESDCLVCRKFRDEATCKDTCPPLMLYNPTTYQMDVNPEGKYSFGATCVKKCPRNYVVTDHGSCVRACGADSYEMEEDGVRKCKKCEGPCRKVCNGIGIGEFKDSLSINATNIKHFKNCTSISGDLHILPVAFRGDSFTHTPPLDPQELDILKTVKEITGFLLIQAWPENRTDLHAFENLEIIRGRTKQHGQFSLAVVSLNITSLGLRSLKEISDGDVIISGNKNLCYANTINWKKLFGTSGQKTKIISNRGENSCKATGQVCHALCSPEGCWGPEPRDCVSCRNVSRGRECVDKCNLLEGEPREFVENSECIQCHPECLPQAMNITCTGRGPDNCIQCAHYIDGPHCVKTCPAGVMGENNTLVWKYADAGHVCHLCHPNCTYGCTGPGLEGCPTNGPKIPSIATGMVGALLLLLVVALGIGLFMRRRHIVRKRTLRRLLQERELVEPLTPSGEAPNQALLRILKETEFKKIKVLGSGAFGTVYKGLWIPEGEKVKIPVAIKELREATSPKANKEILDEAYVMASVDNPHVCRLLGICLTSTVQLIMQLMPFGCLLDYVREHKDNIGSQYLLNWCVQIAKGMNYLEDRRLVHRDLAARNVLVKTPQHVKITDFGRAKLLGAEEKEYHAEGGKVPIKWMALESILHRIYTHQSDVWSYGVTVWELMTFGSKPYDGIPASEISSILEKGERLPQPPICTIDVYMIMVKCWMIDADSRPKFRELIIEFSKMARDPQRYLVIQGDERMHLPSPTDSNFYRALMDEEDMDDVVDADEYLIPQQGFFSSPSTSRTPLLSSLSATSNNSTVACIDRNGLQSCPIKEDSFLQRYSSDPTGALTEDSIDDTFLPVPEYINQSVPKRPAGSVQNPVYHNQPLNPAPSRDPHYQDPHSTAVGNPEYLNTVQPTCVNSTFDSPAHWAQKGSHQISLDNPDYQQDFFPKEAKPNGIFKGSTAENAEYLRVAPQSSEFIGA
T4 sequence (P00533 25-1210): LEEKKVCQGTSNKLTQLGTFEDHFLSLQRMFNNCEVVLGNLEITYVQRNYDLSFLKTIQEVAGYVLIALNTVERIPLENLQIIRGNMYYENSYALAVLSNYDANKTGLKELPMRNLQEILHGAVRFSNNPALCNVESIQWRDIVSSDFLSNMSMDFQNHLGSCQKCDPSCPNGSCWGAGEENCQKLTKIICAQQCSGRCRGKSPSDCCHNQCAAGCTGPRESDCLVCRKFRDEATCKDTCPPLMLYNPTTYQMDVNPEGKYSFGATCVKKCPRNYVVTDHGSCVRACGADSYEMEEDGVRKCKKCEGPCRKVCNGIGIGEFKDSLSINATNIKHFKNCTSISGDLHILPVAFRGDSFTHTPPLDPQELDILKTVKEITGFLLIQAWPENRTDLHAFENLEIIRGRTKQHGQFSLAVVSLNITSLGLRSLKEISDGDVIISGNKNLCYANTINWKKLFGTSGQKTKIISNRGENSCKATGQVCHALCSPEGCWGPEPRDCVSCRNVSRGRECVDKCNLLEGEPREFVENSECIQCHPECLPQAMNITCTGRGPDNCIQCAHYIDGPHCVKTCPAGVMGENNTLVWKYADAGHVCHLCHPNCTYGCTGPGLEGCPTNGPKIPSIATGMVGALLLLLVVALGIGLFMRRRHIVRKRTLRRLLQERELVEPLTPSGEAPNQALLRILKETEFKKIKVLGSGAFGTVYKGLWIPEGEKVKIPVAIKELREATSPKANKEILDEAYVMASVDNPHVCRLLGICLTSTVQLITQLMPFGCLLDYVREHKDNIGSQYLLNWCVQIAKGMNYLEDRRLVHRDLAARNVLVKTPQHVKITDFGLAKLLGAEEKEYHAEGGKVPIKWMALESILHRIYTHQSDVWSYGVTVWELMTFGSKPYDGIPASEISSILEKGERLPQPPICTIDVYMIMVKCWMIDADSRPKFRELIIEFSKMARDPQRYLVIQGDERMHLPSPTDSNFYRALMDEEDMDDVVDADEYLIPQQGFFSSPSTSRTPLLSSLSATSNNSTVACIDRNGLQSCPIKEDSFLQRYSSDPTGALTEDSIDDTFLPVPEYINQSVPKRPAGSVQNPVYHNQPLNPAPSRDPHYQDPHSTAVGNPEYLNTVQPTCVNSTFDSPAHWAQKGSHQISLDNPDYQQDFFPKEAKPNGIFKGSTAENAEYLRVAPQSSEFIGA
T1 sequence (P00533 25-1210 T790M/C797S/L858R): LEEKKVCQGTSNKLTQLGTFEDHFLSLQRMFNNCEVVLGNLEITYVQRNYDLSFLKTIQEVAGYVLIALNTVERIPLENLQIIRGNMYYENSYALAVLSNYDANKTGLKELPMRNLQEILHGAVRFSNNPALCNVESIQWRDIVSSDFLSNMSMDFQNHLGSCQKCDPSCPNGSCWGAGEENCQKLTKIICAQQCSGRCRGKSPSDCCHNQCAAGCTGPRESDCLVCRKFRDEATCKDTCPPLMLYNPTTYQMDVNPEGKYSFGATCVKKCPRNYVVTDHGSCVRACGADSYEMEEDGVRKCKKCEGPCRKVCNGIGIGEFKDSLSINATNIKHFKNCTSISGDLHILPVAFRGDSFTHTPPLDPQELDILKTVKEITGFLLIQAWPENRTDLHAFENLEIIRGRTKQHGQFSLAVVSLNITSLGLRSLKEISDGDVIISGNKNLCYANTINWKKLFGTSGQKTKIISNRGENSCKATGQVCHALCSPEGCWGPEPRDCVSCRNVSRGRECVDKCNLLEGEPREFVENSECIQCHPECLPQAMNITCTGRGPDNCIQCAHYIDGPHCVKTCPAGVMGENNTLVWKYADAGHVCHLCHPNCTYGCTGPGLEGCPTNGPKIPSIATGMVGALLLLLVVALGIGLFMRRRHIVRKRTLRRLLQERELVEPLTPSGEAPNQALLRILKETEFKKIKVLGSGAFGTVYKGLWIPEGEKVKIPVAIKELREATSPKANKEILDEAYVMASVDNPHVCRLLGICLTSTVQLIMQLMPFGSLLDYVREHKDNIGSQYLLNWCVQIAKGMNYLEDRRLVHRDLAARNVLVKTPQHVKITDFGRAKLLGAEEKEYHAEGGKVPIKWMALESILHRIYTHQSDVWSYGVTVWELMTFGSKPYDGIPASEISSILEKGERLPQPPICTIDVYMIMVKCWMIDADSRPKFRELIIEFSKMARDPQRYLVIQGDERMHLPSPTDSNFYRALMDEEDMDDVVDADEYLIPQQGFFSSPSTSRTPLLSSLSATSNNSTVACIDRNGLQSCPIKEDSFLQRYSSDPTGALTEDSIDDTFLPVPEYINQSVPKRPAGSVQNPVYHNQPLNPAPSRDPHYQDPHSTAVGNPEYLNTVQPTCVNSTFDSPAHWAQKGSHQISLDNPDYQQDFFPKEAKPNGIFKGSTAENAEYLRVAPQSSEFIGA

## COc1cc(N2CCC(N3CCN(C(=O)C4CCN(CC5CCN(c6ccc7c(c6)C(=O)N(C6CCC(=O)NC6=O)C7=O)CC5)CC4)CC3)CC2)ccc1Nc1ncc(Cl)c(Nc2ccccc2P(C)(C)=O)n1 (stereo not shown) [Example 113, 5-(4-((4-(4-(1-(4-((5-chloro-4-((2-(dimethylphosphoryl)phenyl)amino)pyrimidin-2-yl)amino)-3-methoxyphenyl)piperidin-4-yl)piperazine-1-carbonyl)piperidin-1-yl)methyl)piperidin-1-yl)-2-(2,6-dioxopiperidin-3-yl)isoindoline-1,3-dione]
[1]; maximum percentage of degradation, read-out: LTC Dmax (%)
  Dmax: 91%
[1]; read-out: LTC DC50
  DC50: 77.2 nM
[2]
  DC50: 5.3 nM
[2]; NCI-H1975, maximum percentage of degradation
  Dmax: 97.3%
[3]
  DC50: 3.34 nM
[3]; [6]
  Dmax: 89.2%
[4]; [6]
  DTC Dmax (%): 99.16%
[4]; read-out: DTC DC50
  DC50: 15.1 nM
[5]
  DC50: > 10000 nM
[5]; maximum percentage of degradation, read-out: WT Dmax (%)
  Dmax: 29.1%
